Among the data in US20160271263A1 (Novo Nordisk A/S, priority 2010, published 2016) are EC50 values, retold here.

The structures appear in SMILES notation. pEC50: −log10 of the molar value. Numbered stars: 1 amine (or outer) side, 2 acyl side, 3 side chain; on linkers, the order of the positions; unused ones are H or OH. Side chains are listed from the residue outwards. Peptide text beside a SMILES is read from it. * marks the point of attachment. C18 diacid = O=C(O)CCCCCCCCCCCCCCCCC(=O)*; γGlu = O=C(O)[C@H](CCC(=O)[*:2])N[*:1]; AEEA = NCCOCCOCC(=O)O

The target of this experiment is glucagon receptor (Homo sapiens, UniProt P47871). Nature of the experiment: cell-based.
Sequence of glucagon receptor (P47871 26-477): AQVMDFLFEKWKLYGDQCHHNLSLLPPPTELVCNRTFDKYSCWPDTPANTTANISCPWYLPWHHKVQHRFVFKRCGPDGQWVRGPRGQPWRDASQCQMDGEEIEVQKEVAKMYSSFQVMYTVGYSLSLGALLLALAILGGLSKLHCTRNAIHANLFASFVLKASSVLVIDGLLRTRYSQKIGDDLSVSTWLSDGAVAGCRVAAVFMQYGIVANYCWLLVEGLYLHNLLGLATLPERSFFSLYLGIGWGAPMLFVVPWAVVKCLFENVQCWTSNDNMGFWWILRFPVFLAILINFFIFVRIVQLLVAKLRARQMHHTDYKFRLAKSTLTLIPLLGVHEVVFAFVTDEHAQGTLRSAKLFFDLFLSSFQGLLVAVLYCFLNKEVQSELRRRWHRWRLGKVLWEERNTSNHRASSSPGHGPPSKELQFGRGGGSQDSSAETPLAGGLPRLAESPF
In the case of `CC(C)C[C@H](NC(=O)[C@H](CC(C)C)NC(=O)[C@H](Cc1c[nH]c2ccccc12)NC(=O)[C@H](CCC(N)=O)NC(=O)[C@@H](NC(=O)[C@H](Cc1ccccc1)NC(=O)[C@H](CC(=O)O)NC(=O)[C@H](CCC(N)=O)NC(=O)[C@H](C)NC(=O)[C@H](CCCNC(=N)N)NC(=O)[C@H](CCCNC(=N)N)NC(=O)[C@H](CO)NC(=O)[C@H](CC(=O)O)NC(=O)[C@H](CC(C)C)NC(=O)[C@H](Cc1ccc(O)cc1)NC(=O)[C@H](CCCCN)NC(=O)[C@H](CO)NC(=O)[C@H](Cc1ccc(O)cc1)NC(=O)[C@H](CC(=O)O)NC(=O)[C@H](CO)NC(=O)[C@@H](NC(=O)[C@H](Cc1ccccc1)NC(=O)[C@@H](NC(=O)CNC(=O)[C@H](CCC(N)=O)NC(=O)[C@H](CO)NC(=O)[C@@H](N)Cc1c[nH]cn1)[C@@H](C)O)[C@@H](C)O)C(C)C)C(=O)N[C@@H](CC(N)=O)C(=O)N[C@@H](CCCCNC(=O)COCCOCCNC(=O)COCCOCCNC(=O)CC[C@H](NC(=O)CCCCCCCCCCCCCCCCC(=O)O)C(=O)O)C(=O)O` [Example 10], the pEC50 is 10.34.

`CC(C)C[C@H](NC(=O)[C@H](Cc1c[nH]c2ccccc12)NC(=O)[C@H](CCCCNC(=O)COCCOCCNC(=O)COCCOCCNC(=O)CC[C@H](NC(=O)CCCCCCCCCCCCCCCCC(=O)O)C(=O)O)NC(=O)[C@@H](NC(=O)[C@H](Cc1ccccc1)NC(=O)[C@H](CC(=O)O)NC(=O)[C@H](CCC(N)=O)NC(=O)[C@H](C)NC(=O)[C@H](CCCNC(=N)N)NC(=O)[C@H](CCCNC(=N)N)NC(=O)[C@@H](NC(=O)[C@H](CC(=O)O)NC(=O)[C@H](CC(C)C)NC(=O)[C@H](Cc1ccc(O)cc1)NC(=O)[C@H](CCCCN)NC(=O)[C@H](CO)NC(=O)[C@H](Cc1ccc(O)cc1)NC(=O)[C@H](CC(=O)O)NC(=O)[C@H](CO)NC(=O)[C@@H](NC(=O)[C@H](Cc1ccccc1)NC(=O)[C@@H](NC(=O)CNC(=O)[C@H](CCC(N)=O)NC(=O)[C@H](CO)NC(=O)[C@@H](N)Cc1c[nH]cn1)[C@@H](C)O)[C@@H](C)O)[C@@H](C)O)C(C)C)C(=O)N[C@@H](CC(C)C)C(=O)N[C@@H](CO)C(=O)N[C@H](C(=O)O)[C@@H](C)O` [Example 13] (H-HSQGTFTSDYSKYLDTRRAQDFVK([AEEA-AEEA-γGlu-C18 diacid])WLLST-OH; N-terminus and C-terminus assumed) showed a pEC50 of 10.80.

`CC(C)C[C@H](NC(=O)[C@H](Cc1ccc(O)cc1)NC(=O)[C@H](CCCCN)NC(=O)[C@H](CO)NC(=O)[C@H](Cc1ccc(O)cc1)NC(=O)[C@H](CC(=O)O)NC(=O)[C@H](CO)NC(=O)[C@@H](NC(=O)[C@H](Cc1ccccc1)NC(=O)[C@@H](NC(=O)CNC(=O)[C@H](CCC(N)=O)NC(=O)[C@H](CO)NC(=O)[C@@H](N)Cc1c[nH]cn1)[C@@H](C)O)[C@@H](C)O)C(=O)N[C@@H](CC(=O)O)C(=O)N[C@@H](CO)C(=O)N[C@@H](CCCNC(=N)N)C(=O)N[C@@H](CCCNC(=N)N)C(=O)N[C@@H](C)C(=O)N[C@@H](CCC(N)=O)C(=O)N[C@@H](CC(=O)O)C(=O)N[C@@H](Cc1ccccc1)C(=O)N[C@H](C(=O)N[C@@H](CCCCNC(=O)COCCOCCNC(=O)COCCOCCNC(=O)CC[C@H](NC(=O)CCCCCCCCCCCCCCCCC(=O)O)C(=O)O)C(=O)N[C@@H](Cc1c[nH]c2ccccc12)C(=O)N[C@@H](CC(C)C)C(=O)N[C@@H](CC(C)C)C(=O)N[C@@H](CO)C(=O)N[C@H](C(=O)O)[C@@H](C)O)C(C)C` [Example 14] had a negative-log EC50 (pEC50) of 10.70.

With `CC(C)C[C@H](NC(=O)[C@H](Cc1ccc(O)cc1)NC(=O)[C@H](CCCCN)NC(=O)[C@H](CO)NC(=O)[C@H](Cc1ccc(O)cc1)NC(=O)[C@H](CC(=O)O)NC(=O)[C@H](CO)NC(=O)[C@@H](NC(=O)[C@H](Cc1ccccc1)NC(=O)[C@@H](NC(=O)CNC(=O)[C@H](CCC(N)=O)NC(=O)[C@H](CO)NC(=O)[C@@H](N)Cc1c[nH]cn1)[C@@H](C)O)[C@@H](C)O)C(=O)N[C@@H](CC(=O)O)C(=O)N[C@@H](CO)C(=O)N[C@@H](CCCNC(=N)N)C(=O)N[C@@H](CCCNC(=N)N)C(=O)N[C@@H](C)C(=O)N[C@@H](CCC(N)=O)C(=O)N[C@@H](CC(=O)O)C(=O)N[C@@H](Cc1ccccc1)C(=O)N[C@H](C(=O)N[C@@H](CCCCNC(=O)COCCOCCNC(=O)COCCOCCNC(=O)CC[C@H](NC(=O)CCCCCCCCCCCCCCCCC(=O)O)C(=O)O)C(=O)N[C@@H](Cc1c[nH]c2ccccc12)C(=O)N[C@@H](CC(C)C)C(=O)N[C@@H](CC(C)C)C(=O)N[C@H](C(=O)N[C@H](C(=O)O)[C@@H](C)O)[C@@H](C)O)C(C)C` [Example 15], the pEC50 is 10.62.

For the compound `CC(C)C[C@H](NC(=O)[C@H](Cc1ccc(O)cc1)NC(=O)[C@H](CCCCN)NC(=O)[C@H](CO)NC(=O)[C@H](Cc1ccc(O)cc1)NC(=O)[C@H](CC(=O)O)NC(=O)[C@H](CO)NC(=O)[C@@H](NC(=O)[C@H](Cc1ccccc1)NC(=O)[C@@H](NC(=O)CNC(=O)[C@H](CCC(N)=O)NC(=O)[C@H](CO)NC(=O)[C@@H](N)Cc1c[nH]cn1)[C@@H](C)O)[C@@H](C)O)C(=O)N[C@@H](CC(=O)O)C(=O)N[C@@H](CCCCNC(=O)COCCOCCNC(=O)COCCOCCNC(=O)CC[C@H](NC(=O)CCCCCCCCCCCCCCCCC(=O)O)C(=O)O)C(=O)N[C@@H](CCCNC(=N)N)C(=O)N[C@@H](CCCNC(=N)N)C(=O)N[C@@H](C)C(=O)N[C@@H](CCC(N)=O)C(=O)N[C@@H](CC(=O)O)C(=O)N[C@@H](Cc1ccccc1)C(=O)N[C@H](C(=O)N[C@@H](CCC(N)=O)C(=O)N[C@@H](Cc1c[nH]c2ccccc12)C(=O)N[C@@H](CC(C)C)C(=O)N[C@@H](CC(C)C)C(=O)N[C@@H](CC(N)=O)C(=O)N[C@H](C(=O)O)[C@@H](C)O)C(C)C` [Example 17] (H-HSQGTFTSDYSKYLDK([AEEA-AEEA-γGlu-C18 diacid])RRAQDFVQWLLNT-OH; N-terminus and C-terminus assumed), the pEC50 was 11.52.

For `CC(C)C[C@H](NC(=O)[C@H](Cc1ccc(O)cc1)NC(=O)[C@H](CCCCN)NC(=O)[C@H](CO)NC(=O)[C@H](Cc1ccc(O)cc1)NC(=O)[C@H](CC(=O)O)NC(=O)[C@H](CO)NC(=O)[C@@H](NC(=O)[C@H](Cc1ccccc1)NC(=O)[C@@H](NC(=O)CNC(=O)[C@H](CCC(N)=O)NC(=O)[C@H](CO)NC(=O)[C@@H](N)Cc1c[nH]cn1)[C@@H](C)O)[C@@H](C)O)C(=O)N[C@@H](CC(=O)O)C(=O)N[C@@H](CO)C(=O)N[C@@H](CCCNC(=N)N)C(=O)N[C@@H](CCCCNC(=O)COCCOCCNC(=O)COCCOCCNC(=O)CC[C@H](NC(=O)CCCCCCCCCCCCCCCCC(=O)O)C(=O)O)C(=O)N[C@@H](C)C(=O)N[C@@H](CCC(N)=O)C(=O)N[C@@H](CC(=O)O)C(=O)N[C@@H](Cc1ccccc1)C(=O)N[C@H](C(=O)N[C@@H](CCC(N)=O)C(=O)N[C@@H](Cc1c[nH]c2ccccc12)C(=O)N[C@@H](CC(C)C)C(=O)N[C@@H](CC(C)C)C(=O)N[C@@H](CC(N)=O)C(=O)N[C@H](C(=O)O)[C@@H](C)O)C(C)C` [Example 18] (H-HSQGTFTSDYSKYLDSRK([AEEA-AEEA-γGlu-C18 diacid])AQDFVQWLLNT-OH; N-terminus and C-terminus assumed), the negative logarithm of the EC50 (pEC50) is 9.69.

Compound `CC(C)C[C@H](NC(=O)[C@H](Cc1ccc(O)cc1)NC(=O)[C@H](CCCCN)NC(=O)[C@H](CO)NC(=O)[C@H](Cc1ccc(O)cc1)NC(=O)[C@H](CC(=O)O)NC(=O)[C@H](CO)NC(=O)[C@@H](NC(=O)[C@H](Cc1ccccc1)NC(=O)[C@@H](NC(=O)CNC(=O)[C@H](CCC(N)=O)NC(=O)[C@H](CO)NC(=O)[C@@H](N)Cc1c[nH]cn1)[C@@H](C)O)[C@@H](C)O)C(=O)N[C@@H](CC(=O)O)C(=O)N[C@@H](CO)C(=O)N[C@@H](CCCCNC(=O)COCCOCCNC(=O)COCCOCCNC(=O)CC[C@H](NC(=O)CCCCCCCCCCCCCCCCC(=O)O)C(=O)O)C(=O)N[C@@H](CCCNC(=N)N)C(=O)N[C@@H](C)C(=O)N[C@@H](CCC(N)=O)C(=O)N[C@@H](CC(=O)O)C(=O)N[C@@H](Cc1ccccc1)C(=O)N[C@H](C(=O)N[C@@H](CCC(N)=O)C(=O)N[C@@H](Cc1c[nH]c2ccccc12)C(=O)N[C@@H](CC(C)C)C(=O)N[C@@H](CC(C)C)C(=O)N[C@@H](CC(N)=O)C(=O)N[C@H](C(=O)O)[C@@H](C)O)C(C)C` [Example 19] showed a pEC50 of 10.03.

The compound `CSCC[C@H](NC(=O)[C@H](CC(C)C)NC(=O)[C@H](Cc1c[nH]c2ccccc12)NC(=O)[C@H](CCC(N)=O)NC(=O)[C@@H](NC(=O)[C@H](Cc1ccccc1)NC(=O)[C@H](CC(=O)O)NC(=O)[C@H](CCCCNC(=O)COCCOCCNC(=O)CC[C@H](NC(=O)CCCCCCCCCCCCCCCCC(=O)O)C(=O)O)NC(=O)[C@H](C)NC(=O)[C@H](CCCNC(=N)N)NC(=O)[C@H](CCCNC(=N)N)NC(=O)[C@H](CO)NC(=O)[C@H](CC(=O)O)NC(=O)[C@H](CC(C)C)NC(=O)[C@H](Cc1ccc(O)cc1)NC(=O)[C@H](CCCCN)NC(=O)[C@H](CO)NC(=O)[C@H](Cc1ccc(O)cc1)NC(=O)[C@H](CC(=O)O)NC(=O)[C@H](CO)NC(=O)[C@@H](NC(=O)[C@H](Cc1ccccc1)NC(=O)[C@@H](NC(=O)CNC(=O)[C@H](CCC(N)=O)NC(=O)[C@@H](CO)NC(=O)[C@@H](N)Cc1c[nH]cn1)[C@@H](C)O)[C@@H](C)O)C(C)C)C(=O)N[C@@H](CC(N)=O)C(=O)N[C@H](C(=O)N[C@@H](CCCCN)C(N)=O)[C@@H](C)O` [Example 23, N^α-(N^ε24 [2-[2-[2-[[(4S)-5-hydroxy-4-[(18-hydroxy-18-oxo-octadecanoyl)amino]-5-oxo-pentanoyl]amino]ethoxy]ethoxy]acetyl] [D-Ser^e, Lys^20] Glucagonyl) Lysinyl amide] showed a pEC50 of 9.27.
